From ChEMBL document CHEMBL4017474, “A calcineurin antifungal strategy with analogs of FK506” (Bioorg Med Chem Lett, 2017)
Converted amounts (≈) assume the structure as drawn. The source made the active and inactive calls. The calls are words filed in the database; no cut-off is given here.

What was measured:
[1] = target: T1, Peptidyl-prolyl cis-trans isomerase FKBP1A (Homo sapiens, UniProt P62942); test: (§1) Antagonist activity at recombinant human N-terminal His6-tagged FKBP12 expressed in Escherichia coli assessed as inhibition of FKBP12 binding to calcineurin at 5 uL using […] pretreated for 1 hr followed by substrate addition measured after 1 hr by biomol green dye based spectrophotometric method
[2] = AUClast in mouse at 3 mg/kg, iv; type: ADME, organism-based; parameters: dose 3 mg/kg, time 0 - last, route intravenous; settings: in vivo
HepG2 = test: Cytotoxicity against human HepG2 cells; type: cell-based
Vero 76 = test: Cytotoxicity against African green monkey Vero 76 cells; type: cell-based; settings: Chlorocebus sabaeus
Jurkat = test: Immunosuppressive activity in PMA/ionomycin stimulated human Jurkat T cells assessed as suppression of IL2 production pretreated for 15 to 30 mins followed by PMA/ionomycin addition measured after 18 to 20 hrs by ELISA; type: cell-based
[3] = Terminal half-life in mouse at 3 mg/kg, iv; type: ADME, organism-based; settings: in vivo, read-out: beta t1/2 (converted)
[4] = Clearance in mouse at 3 mg/kg, iv; type: ADME, organism-based; settings: in vivo
[5] = Antagonist activity at Aspergillus fumigatus FKBP12 measured after 30 mins by fluorescein labelled SLF tracer based fluorescence polarization assay
Aspergillus fumigatus [6] = test: Antifungal activity against Aspergillus fumigatus by broth macrodilution method; type: functional
Cryptococcus neoformans = test: Antifungal activity against Cryptococcus neoformans by broth macrodilution method; type: functional
[7] = Volume of distribution at steady state in mouse at 3 mg/kg, iv; type: ADME, organism-based; settings: in vivo, read-out: Vdss
[8] = target: T1, Peptidyl-prolyl cis-trans isomerase FKBP1A; test: as §1, with “of FK506 mediated” for “of”, “calcineurin” for “calcineurin at 5 uL”
Aspergillus fumigatus [9] = test: Antifungal activity against Aspergillus fumigatus up to 25 ug/ml measured after 48 hrs by broth dilution method; type: functional
PBMC [10] = test: Permeability across human PBMC at 1 uM; type: ADME, cell-based
Aspergillus fumigatus [11] = test: Antifungal activity against Aspergillus fumigatus assessed as spore germination at 12.5 ug/ml measured after 48 hrs in presence of FK506 by broth dilution method relative to control; type: functional
PBMC [12] = test: Reversal of FK506-induced inhibition of cell proliferation in concanavalin A stimulated human PBMC at 1 uM measured after 72 hrs by CellTiter-Glo assay relative to control; type: functional; parameters: scale not given: the % may be the effect or the level left
[13] = target: T1, Peptidyl-prolyl cis-trans isomerase FKBP1A; test: Antagonist activity at human FKBP12 measured after 30 mins by fluorescein labelled SLF tracer based fluorescence polarization assay
PBMC [14] = test: Antiproliferative activity against concanavalin A stimulated human PBMC at 1 to 2 ug/ml measured after 72 hrs by CellTiter-Glo assay; type: cell-based
[15] = Tmax in mouse at 10 mg/kg, po; type: ADME, organism-based; settings: in vivo
[16] = Cmax in mouse at 10 mg/kg, po; type: ADME, organism-based; parameters: dose 10 mg/kg, route oral; settings: in vivo
Aspergillus fumigatus [17] = test: Permeability across Aspergillus fumigatus at 12.5 ug/ml relative to human PBMC; type: ADME
[18] = AUClast in mouse at 10 mg/kg, po; type: ADME, organism-based; parameters: dose 10 mg/kg, time 0 - last, route oral; settings: in vivo

T1 sequence (P62942 whole entry): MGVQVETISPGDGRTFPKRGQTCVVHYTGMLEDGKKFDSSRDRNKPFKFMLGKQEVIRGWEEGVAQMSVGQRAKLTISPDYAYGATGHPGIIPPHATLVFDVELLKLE

Row | SMILES | inhibition [1] | AUC(0-t) [2] [ng·h/mL] | IC50 (Jurkat) [nM] | half-life [3] [min] | clearance [4] [mL/min/kg] | IC50 [5] [nM] | Vd [7] [L/kg] | permeability (PBMC [10]) [%] | IC50 [13] [nM] | Tmax [15] [min] | Cmax [16] [ng/mL] | permeability (Aspergillus fumigatus [17]) [%] | AUC(0-t) [18] [ng·h/mL] | IC50 (HepG2) [nM] | IC50 (Vero 76) [nM] | Activity (Aspergillus fumigatus [9]) | Activity (Aspergillus fumigatus [11]) [%] | Activity (PBMC [12]) [%] | Activity (PBMC [14]) | other results
1 | C=CC[C@@H]1/C=C(\C)C[C@H](C)C[C@H](OC)[C@H]2O[C@@](O)(C(=O)C(=O)N3CCCC[C@H]3C(=O)O[C@H](/C(C)=C/[C@@H]3CC[C@@H](O)[C@H](OC)C3)[C@H](C)[C@@H](O)CC1=O)[C@H](C)C[C@@H]2OC [TACROLIMUS ANHYDROUS] | inactive | 1620 | 360 | 57.1 | 29.5 | 18.4 | 1.8 |  |  |  |  |  |  | > 100000 | > 100000 |  |  |  |  | MIC (Aspergillus fumigatus [6]): 0.025 µg/mL (≈ 0.0311 µM); MIC (Cryptococcus neoformans): 0.01 µg/mL (≈ 0.0124 µM)
2 | CO[C@H]1C[C@@H](C)C/C(C)=C/[C@@H](CC(=O)N2CCN(C)CC2)C(=O)C[C@H](O)[C@@H](C)[C@@H](/C(C)=C/[C@@H]2CC[C@@H](O)[C@H](OC)C2)OC(=O)[C@@H]2CCCCN2C(=O)C(=O)[C@]2(O)O[C@H]1[C@@H](OC)C[C@H]2C | inactive |  | > 10000 |  |  | 16.8 |  | 100 | 12.6 |  |  |  |  | > 100000 | > 100000 | inactive | 43.1 | 102.8 | Non-Toxic | IC50 [8]: 1100 nM
3 | CO[C@H]1C[C@@H](C)C/C(C)=C/[C@@H](CCCC(=O)N2CCC(CO)CC2)C(=O)C[C@H](O)[C@@H](C)[C@@H](/C(C)=C/[C@@H]2CC[C@@H](OCCO)[C@H](OC)C2)OC(=O)[C@@H]2CCCCN2C(=O)C(=O)[C@]2(O)O[C@H]1[C@@H](OC)C[C@H]2C | inactive |  | > 10000 |  |  |  |  |  | 23.6 |  |  | 75 |  | > 100000 | > 100000 | inactive | 24 | 81.7 | Non-Toxic | 

The next lines start with results.

Row | inhibition [1] | AUC(0-t) [2] [ng·h/mL] | IC50 (Jurkat) [nM] | half-life [3] [min] | clearance [4] [mL/min/kg] | IC50 [5] [nM] | Vd [7] [L/kg] | permeability (PBMC [10]) [%] | IC50 [13] [nM] | Tmax [15] [min] | Cmax [16] [ng/mL] | permeability (Aspergillus fumigatus [17]) [%] | AUC(0-t) [18] [ng·h/mL] | SMILES | IC50 (HepG2) [nM] | IC50 (Vero 76) [nM] | Activity (Aspergillus fumigatus [9]) | Activity (Aspergillus fumigatus [11]) [%] | Activity (PBMC [12]) [%] | Activity (PBMC [14]) | other results
4 | inactive | 2780 | > 10000 | 81.6 | 16.1 |  | 1.35 |  | 22.6 | 30 | 814 | 75 | 1860 | CO[C@H]1C[C@@H](C)C/C(C)=C/[C@@H](CC(=O)N2CCCC2)C(=O)C[C@H](O)[C@@H](C)[C@@H](/C(C)=C/[C@@H]2CC[C@@H](OC(=O)N3CC(O)C3)[C@H](OC)C2)OC(=O)[C@@H]2CCCCN2C(=O)C(=O)[C@]2(O)O[C@H]1[C@@H](OC)C[C@H]2C | > 100000 | > 100000 | inactive | 22 | 63 | Non-Toxic | 
5 | inactive | 2110 | > 10000 | 47.6 | 22.8 |  | 1.17 | 100 | 27 | 30 | 1640 |  | 2710 | CO[C@H]1C[C@@H](C)C/C(C)=C/[C@@H](CCCSCCO)C(=O)C[C@H](O)[C@@H](C)[C@@H](/C(C)=C/[C@@H]2CC[C@@H](O)[C@H](OC)C2)OC(=O)[C@@H]2CCCCN2C(=O)C(=O)[C@]2(O)O[C@H]1[C@@H](OC)C[C@H]2C | > 100000 | > 100000 | inactive | 37.5 | 96.5 | Non-Toxic | 
